# Measured values: patent US11712434B2, “Compound having anti-cancer effect, and preparation method therefor and use thereof” (3D MEDICINES (BEIJING) CO., LTD., priority 2016, dated 2023)
# Values joined by “and” are separate entries in the source; they are usually repeats but may differ in a detail not shown here. Equal entries are not always repeated. “Also recorded” adds a separate entry of the source.
# Key:
# [1] = Plasma stability study of compound 8 in rat plasma; type: in vitro ADME, SD rat; conditions: for Residual compound 8 concentration: 37° C., Repeat 1 and 2
# Description: The purpose of this example was to investigate the stability of incubation of compound 8 in rat plasma (compound 8 was metabolized to form intermediate compound 12 and Linifanib, intermediate compound 12 was further metabolized to form Linifanib), and the metabolites were quantified and analyzed, and the stability of the incubation system was verified by a positive drug, which provided a reference for the evaluation of the drug-forming properties of the compound.
# 1. Instruments and Materials • Instrument: API3000 LC/MS, ABI • Materials: Male SD rats (200-250 g), Beijing Vital River • Test sample: positive drug and its metabolites M1 and M2, compound 8 and its metabolite compound 12 and Linifanib.
# 2. Compound 8 Plasma Stability Study • Test animal • Type: SD rat; Quantity: 2 • Sex: male; weight: 200-250 g;
# Experimental Procedure • 1). Animal blood was collected, blood samples were placed in EDTA anticoagulation tubes, centrifuged at 3000 g for 15 min at 4° C., plasma was separated, and 2 blood samples were mixed in equal volumes; • 2). Weighed a certain amount of compound 8 and dissolved in DMSO:MeOH (2:8), prepared into 200 μM mother liquor by purity conversion, and added the compound to plasma to reach a final concentration of 1 μg/mL in plasma. The organic ratio in the system was not more than 0.5%. • 3). Incubated in a 37° C. water bath and set the sampling points to 0, 0.5, 1, 2, 4, 6, 8 h. At each sampling point, 100 μL of each sample was collected and 300 μL of acetonitrile (with internal standard) was added for precipitation, centrifuged at 12,000 rpm for 5 min, and 200 μL of supernatant was taken for analysis by LC-MS/MS. • 4). Configured the standard curve to quantify compound 8, compound 12 and Linifanib
# [2] = tested on: 26 liver cancer cell lines; assay: Cell proliferation assay (Alamar Blue), liver cancer panel summary; type: cell-based; conditions: almost all liver cancer cells
# Description: 1. Instruments and Materials • Thermo 311 CO2 incubator; Haier biosafety cabinet; Molecular Devices microplate reader; Xiangyi brand L530 desktop low speed centrifuge; Olympus IX51 inverted fluorescence microscope, DMEM, RPMI 1640, MEM, DMEM/F12 1:1 medium, Fetal bovine serum, 0.25% trypsin solution, phosphate buffer (Thermo Fisher Shanghai Co., Ltd.); sigma dimethyl sulfoxide (DMSO), resazurin; 54 commercial tumor cell lines (including 26 liver cancer cell lines). Experimental drugs: compounds 1-12 and active drug Linifanib; chemotherapeutic drug Doxorubicin (HY-15142; Shanghai Qianyuan Biomedical Technology Co., Ltd.).
# 2. […] The proportion and quantity of passage were determined by experimental needs. The ratio of subculture of this cell line was generally 1:2^˜1:3. • 2.2 Inhibition Effect on the Proliferation of Different Tumor Cell Lines • Cell test: 54 cell lines in logarithmic growth phase were inoculated in 96-well culture plates at 500^˜1×10^4/well (the optimal seeding density of each cell line was determined in pre-experiment), After incubating at 37° C. for 4 h in a 5% CO2 humidification incubator, added 10 μL of compounds 1-12 or Linifanib to each well, and tested 9 drug concentration gradients for each compound (diluted from the highest concentration of the test by 3.16 times). […]
Structure (SMILES),amount of Compound 12 and Linifanib produced by metabolism [1],Residual compound 8 concentration ([1]; 0 h),Residual compound 8 concentration ([1]; 0.5 h),Residual compound 8 concentration ([1]; 1 h),Residual compound 8 concentration ([1]; 2 h),Residual compound 8 concentration ([1]; 4 h),Residual compound 8 concentration ([1]; 6 h),Residual compound 8 concentration ([1]; 8 h),stability in plasma ([1]; up to 8 h),response of liver cancer cells [2]
Cc1ccc(F)c(NC(=O)Nc2ccc(-c3cccc4[nH]nc(NC(=O)CCCCCCCCCCCNC(=O)C[C@H](N)C(=O)N[C@@H](CCC(=O)N[C@@H](CCC(=O)N[C@@H](CCC(=O)N[C@@H](CCC(=O)O)C(=O)O)C(=O)O)C(=O)O)C(=O)O)c34)cc2)c1 [Compound 8],extremely small,1200 ng/mL and 680 ng/mL,1190 ng/mL and 1450 ng/mL,1460 ng/mL and 1620 ng/mL,960 ng/mL and 1040 ng/mL,876 ng/mL and 868 ng/mL,1110 ng/mL and 1190 ng/mL,1200 ng/mL and 680 ng/mL,relatively stable; also recorded: very good,
Cc1ccc(F)c(NC(=O)Nc2ccc(-c3cccc4[nH]nc(NC(=O)CCCCCCCCCCCNC(=O)C[C@H](N)C(=O)O)c34)cc2)c1 [Compound 12],,,,,,,,,,did not respond
